Measured values: patent publication US20170115269A1, “ACYLCARNITINE COMPOSITION” (SEKISUI MEDICAL CO., LTD., priority 2014, published 2017)

Experiment: Storage stability of acylcarnitine-stable isotopes in methanol solution at room temperature (Reference Example 1, LC-MS/MS residual rate)
Format: physicochemical
Method: Acylcarnitine solutions were acquired by dissolving acylcarnitine-stable isotopes into methanol to concentrations listed in Table 3. The acylcarnitine-stable isotopes were measured under the following conditions. The acylcarnitine solutions were measured immediately before storage (prepared at the time of use) and after storage for predetermined periods, and the residual rate (%) was calculated from the acquired peak area ratio using Equation 2 described below.
System: LC-20A series (manufactured by Shimadzu Corporation) and 4000 QTRAP (manufactured by AB Sciex) […]
Mobile phase: mobile phase A, 0.5% (v/v) formic acid aqueous solution mobile phase B, 500 mmol/L ammonium formate aqueous solution: 500 mmol/L ammonium hydroxide (9:1)/methanol=1/9
Analysis time: 70 minutes
LC column: Scherzo SS-C18, 3 μm, 3.0×150 mm (manufactured by Imtact Corporation) Column temperature: 50° C.
Sample injection amount: 5 μL
Ionization mode: ESI (electrospray ionization)
Ion source: Turbo IonSpray
Q1/Q3 is described in Table 3.

[1] = storage period 2 M (two months)

Row | Structure (SMILES) | Res. Rt (Residual Rate) (storage period 1 M (one month)) | Res. Rt (Residual Rate) [1]
1 | [2H]C([2H])([2H])[N+](C)(C)CC(CC(=O)[O-])OC(=O)CC(C)(C)O (stereo not shown) [^2H3-(3-Hydroxyisovaleryl)-carnitine] | 99.9% | 97.9%
2 | [2H]C([2H])([2H])[N+](C)(C)CC(CC(=O)[O-])OC(=O)CCCCCCCCCCCCCCCCC (stereo not shown) [^2H3-Octadecanoylcarnitine] | 103.7% | 69.6%
3 | [2H]C([2H])([2H])[N+](C)(C)CC(CC(=O)[O-])OC(=O)CCCCCCCCCCC (stereo not shown) [^2H3-Dodecanoylcarnitine] | 103.1% | 84.9%
4 | [2H]C([2H])([2H])[N+](C)(C)CC(CC(=O)[O-])OC(=O)CCC (stereo not shown) [^2H3-Butyrylcarnitine] | 101.7% | 63.8%
5 | [2H]C([2H])([2H])[N+](C)(C)CC(CC(=O)[O-])OC(=O)CCCC(=O)O (stereo not shown) [^2H3-Glutarylcarnitine] | 99.3% | 63.3%
6 | [2H]C([2H])([2H])[N+](C)(C)CC(CC(=O)[O-])OC(=O)CCCCCCC (stereo not shown) [^2H3-Octanoylcarnitine] | 103.3% | 70.3%
7 | [2H]C([2H])([2H])[N+](C)(C)CC(CC(=O)[O-])OC(=O)CCCCCCCCCCCCCCC (stereo not shown) [^2H3-Palmitoylcarnitine] | 101.2% | 62.6%

Now from value to compound:

Row | Res. Rt (Residual Rate) (storage period 1 M (one month)) | Res. Rt (Residual Rate) [1] | Structure (SMILES)
8 | 97.4% | 38.5% | [2H]C([2H])([2H])[N+](C)(C)CC(CC(=O)[O-])OC(=O)CC (stereo not shown) [^2H3-Propionylcarnitine]
9 | 100.3% | 99.4% | [2H]C([2H])([2H])[N+](CC(CC(=O)[O-])OC(=O)CC(C)C)(C([2H])([2H])[2H])C([2H])([2H])[2H] (stereo not shown) [^2H9-Isovalerylcarnitine]
10 | 100.9% | 100.2% | [2H]C([2H])([2H])[N+](C[C@H](O)CC(=O)[O-])(C([2H])([2H])[2H])C([2H])([2H])[2H] [^2H9-Carnitine]
11 | 103.9% | 67.8% | [2H]C([2H])([2H])[N+](CC(CC(=O)[O-])OC(=O)CCCCCCCCCCCCC)(C([2H])([2H])[2H])C([2H])([2H])[2H] (stereo not shown) [^2H9-Myristoylcarnitine]
